Reference: US20210087525A1, “COST EFFECTIVE CULTURE MEDIA AND PROTOCOL FOR HUMAN INDUCED PLURIPOTENT STEM CELLS” (NORTHWESTERN UNIVERSITY, priority 2019, published 2021)

Legend:
[1] = test system: hiPSC; test: weekend-free media change / passaging schedule growth; type: cell-based, human; conditions: various doses, FIG. 8E
Experimental: FIG. 8A-H. Optimization of Weekend-Free Passaging Schedule that is Still Compatible with Monolayer Differentiation. (A) Establishment of an optimal 4-day media change schedule. (B) 7 day passage with media change schedule. (C) 7 day passage only schedule. (D) Comparison of growth when using two 7-day weekend-free passaging schedules with or without addition of 0.5 mg ml−1 albumin (n=2). (E) Comparison the addition of varying levels of albumin (mg ml−1) to a 7-day passage and media change schedule (n=4). (F) Cardiac differentiation efficiency when using 7-day passage and media change schedule (n=5). (G) Endothelial differentiation efficiency when using 7-day passage and media change schedule (n=6). (H) […]
With the understanding that B8 supports hiPSC growth across a variety of sub-optimal conditions (FIG. 7D), we established the suitability of this formula to skip days of media change. […] With the knowledge of the influence of various media change-skipping timelines, we devised a 7-day schedule consisting of passaging cells every 3.5 days that would allow for the skipping of media changes on the weekends, a major caveat of current hiPSC culture protocols (FIGS. 8B and 8C). […]

[2] = test system: phospho-ERK; test: stimulation of phospho-ERK in FGF2-starved hiPSC by media stored at 37° C. (Western blot); type: cell-based, human; conditions: FIG. 7E
Experimental: FIG. 7A-E. Qualification of B8 as Suitable for hiPSC Generation and Culture. […] (B) Expression of pluripotent markers in a variety of B8-derived hiPSC lines. (C) Example G-banding karyotype analysis of four hiPSC lines derived in B8 from blood. (D) hiPSC growth at low seeding densities in B8 compared to E8 (n=8). (E) Assessment of stimulation of phospho-ERK after media had been stored at 37° C. for 2 or 7 days, comparing in-house generated FGF2-G3 to a commercial FGF2 (Peprotech). hiPSC were starved of FGF2 for 24 h then treated with the indicated media for 1 h before collection for Western blot. Total ERK was used as a loading control.
Stock lysis buffer was prepared as 150 mM NaCl, 20 mM Tris pH 7.5, 1 mM EDTA, 1 mM EGTA, and 1% Triton X-100 and stored at 4° C. Fresh complete lysis buffer was prepared with final concentration of 1× Protease Inhibitor (Roche, 5892791001), 1× Phosphatase Inhibitor Cocktail 2 (P5726, Sigma), 1× Phosphatase Inhibitor Cocktail 3 (Sigma, P0044), 2 mM PMSF (Sigma, P7626), and 1% SDS Solution (Fisher Scientific, BP2436200). hiPSC were starved using B8 without FGF2 for 24 hours, then treated with media containing the corresponding FGF2 for 1 h. Media was then removed, and cells were washed once with DPBS, harvested with 0.5 mM EDTA in DPBS, and transferred into tubes. Samples were pelleted by centrifugation at 500×g for 3 minutes and the supernatant was discarded. The pellet was resuspend in 150 μl complete lysis buffer and incubated on ice for 30 min. Clear lysates were collected by centrifugation at 10,000×g for 10 min at 4° C. The protein concentration was measured with Qubit Protein Assay Kit (Invitrogen, Q33211) and Qubit 4 fluorometer. Lysates was stored in −80° C. before use. 10 μg of sample was prepared with NuPAGE™ LDS Sample Buffer (Invitrogen, B0007) and NuPAGE™ Reducing Agent (Invitrogen, B0009) according to the manufacturer's instructions and run on NuPAGE™ 10% Bis-Tris Gel (Invitrogen, NP0302BOX) and Mini Gel Tank system (Invitrogen, A25977) with Bolt MES SDS Running Buffer (Invitrogen, B000202) at 100 V for 1 h. […]

In the case of heparin, the “additive effect in B8” value [1] is reported as “do not have an additive effect” and the “effect of component on stability of FGF2-G3” value [2] is reported as “improved the stability of FGF2-G3”.
